Conditions: Liquid, Buoyancy - hydrostatic balance with magnetic suspension - one sinker

CCCCCCCCCCC [undecane]
Conditions | mass density [kg/m3]
313.17 K, 19009 kPa | 741.21
313.18 K, 9997 kPa | 734.69
313.19 K, 12016 kPa | 736.18
313.19 K, 18013 kPa | 740.5
313.22 K, 14009 kPa | 737.62
313.23 K, 16006 kPa | 739.05
313.24 K, 8029 kPa | 733.14
323.18 K, 19002 kPa | 734.54
323.19 K, 16026 kPa | 732.35
323.19 K, 17995 kPa | 733.8
323.22 K, 10009 kPa | 727.67
323.23 K, 12003 kPa | 729.24
323.23 K, 14022 kPa | 730.8
323.24 K, 7997 kPa | 726.03
333.12 K, 16003 kPa | 725.32
333.12 K, 17990 kPa | 726.87
333.13 K, 12007 kPa | 722.07
333.14 K, 8001 kPa | 718.68
333.14 K, 19027 kPa | 727.66
333.15 K, 14012 kPa | 723.7
333.16 K, 10001 kPa | 720.38
343.25 K, 13005 kPa | 716
343.25 K, 16996 kPa | 719.36
343.26 K, 11021 kPa | 714.27
343.26 K, 14019 kPa | 716.86
343.27 K, 15997 kPa | 718.51
343.27 K, 18006 kPa | 720.27
343.28 K, 11999 kPa | 715.12
343.28 K, 19019 kPa | 720.98
343.29 K, 7989 kPa | 711.51
343.29 K, 9998 kPa | 713.33
343.3 K, 14998 kPa | 717.66
353.16 K, 12003 kPa | 708.19
353.31 K, 11002 kPa | 707.25
353.31 K, 17012 kPa | 712.63
353.32 K, 13007 kPa | 709.08
353.32 K, 14999 kPa | 710.86
353.32 K, 19024 kPa | 714.35
353.33 K, 7993 kPa | 704.36
353.33 K, 14003 kPa | 709.98
353.33 K, 18010 kPa | 713.48
353.34 K, 16001 kPa | 711.73
353.35 K, 9996 kPa | 706.27

Source: the NIST ThermoML archive (doi:10.1021/acs.jced.6b00026)
